# Tests used:
# [1] = target: T1, T antigen (Simian virus 40, UniProt P03070); experiment: ATPase activity of purified T antigen; format: biochemical, polyomavirus; conditions: for Fold change in ATPase activity of T antigen: compound 10 μM, purified T antigen, normalized to DMSO, mean of 3 experiments
# [2] = test system: JC Virus; experiment: JC virus replication in COS7 cells; format: cell-based; conditions: comparison with cidofovir
# [3] = target: Hsp70 + Hdj2 (Homo sapiens, UniProt P0DMV8); experiment: Hsp40; format: biochemical; conditions: carboxylic acid in place of tetrazole
# Chain of Hsp70 + Hdj2 (P0DMV8 whole entry): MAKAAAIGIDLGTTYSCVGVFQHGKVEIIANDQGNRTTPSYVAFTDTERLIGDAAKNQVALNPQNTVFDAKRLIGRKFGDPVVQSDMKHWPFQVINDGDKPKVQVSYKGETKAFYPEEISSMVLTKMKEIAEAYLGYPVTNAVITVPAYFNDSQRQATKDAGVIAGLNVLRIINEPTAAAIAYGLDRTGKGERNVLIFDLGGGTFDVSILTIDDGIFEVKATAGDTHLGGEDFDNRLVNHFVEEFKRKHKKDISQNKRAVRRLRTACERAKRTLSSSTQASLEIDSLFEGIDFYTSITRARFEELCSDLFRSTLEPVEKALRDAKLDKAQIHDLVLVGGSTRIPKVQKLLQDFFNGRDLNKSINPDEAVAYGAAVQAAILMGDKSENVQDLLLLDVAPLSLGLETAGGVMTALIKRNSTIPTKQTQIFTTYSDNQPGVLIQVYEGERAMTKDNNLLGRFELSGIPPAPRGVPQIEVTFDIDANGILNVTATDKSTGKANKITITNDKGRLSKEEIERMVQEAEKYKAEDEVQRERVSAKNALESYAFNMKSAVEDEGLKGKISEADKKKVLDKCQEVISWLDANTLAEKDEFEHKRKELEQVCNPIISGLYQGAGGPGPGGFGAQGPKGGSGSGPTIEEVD
# [4] = target: T1, T antigen; conditions: cited from earlier work
# [5] = target: human Hsp70 (Homo sapiens, UniProt P0DMV8); experiment: Endogenous Hsp70 ATPase activity; format: biochemical
# Chain of human Hsp70 (P0DMV8 whole entry): as above
# [6] = test system: human foreskin fibroblasts; experiment: Cytotoxicity in human foreskin fibroblasts; format: cell-based; conditions: in words
# [7] = test system: RMS13 and MCF7 cells; experiment: Growth inhibition of the two cancer lines; format: cell-based; conditions: Homo sapiens, read-out: GI50 across the two cancer lines
# T1 sequence (P03070 whole entry): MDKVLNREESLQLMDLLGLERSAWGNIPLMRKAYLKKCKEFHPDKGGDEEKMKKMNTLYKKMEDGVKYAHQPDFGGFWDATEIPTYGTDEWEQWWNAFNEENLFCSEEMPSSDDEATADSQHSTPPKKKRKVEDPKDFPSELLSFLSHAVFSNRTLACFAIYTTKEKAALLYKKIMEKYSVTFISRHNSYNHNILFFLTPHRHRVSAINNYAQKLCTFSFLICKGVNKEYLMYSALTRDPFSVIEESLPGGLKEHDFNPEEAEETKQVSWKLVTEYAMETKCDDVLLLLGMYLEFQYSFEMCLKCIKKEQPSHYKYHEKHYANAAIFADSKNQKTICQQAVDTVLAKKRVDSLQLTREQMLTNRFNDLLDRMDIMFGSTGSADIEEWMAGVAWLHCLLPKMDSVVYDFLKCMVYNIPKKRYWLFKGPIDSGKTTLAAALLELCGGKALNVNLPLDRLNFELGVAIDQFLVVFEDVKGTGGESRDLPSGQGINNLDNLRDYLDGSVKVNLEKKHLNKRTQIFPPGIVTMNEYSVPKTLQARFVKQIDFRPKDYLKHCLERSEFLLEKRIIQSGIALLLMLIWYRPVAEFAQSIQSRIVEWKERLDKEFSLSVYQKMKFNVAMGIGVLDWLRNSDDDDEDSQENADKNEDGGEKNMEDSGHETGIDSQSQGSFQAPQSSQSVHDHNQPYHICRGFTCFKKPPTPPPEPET
structure (smiles),measurement,setting,value
CC1=C(C(=O)OCc2ccccc2)C(c2ccc(-c3ccccc3)cc2)NC(=S)N1CCCCCc1nnn[nH]1 (centres unmarked) [AMT580-027],Fold change in ATPase activity of T antigen,[1],−2.1 fold
CC1=C(C(=O)OCc2ccccc2)C(c2ccc(-c3ccccc3C)cc2)NC(=S)N1Cc1ccc(-c2nnn[nH]2)cc1 (centres unmarked) [AMT551-093],Fold change in ATPase activity of T antigen,[1],−7.7 fold
CC1=C(C(=O)OCc2ccccc2)C(c2ccc(-c3ccccc3C)cc2)N(Cc2ccc(-c3nnn[nH]3)cc2)C(=S)N1 (centres unmarked) [AMT551-058],Fold change in ATPase activity of T antigen,[1],−7.5 fold
CC1=C(C(=O)OCc2ccccc2)C(c2ccc(-c3ccccc3)cc2)N(Cc2ccc(-c3nnn[nH]3)cc2)C(=S)N1 (centres unmarked) [AMT580-043],"Inhibition of polyomavirus replication in cell culture, in words",[2],"more potently than an existing drug, cidofovir"
same,Fold change in ATPase activity of T antigen,[1],−4.5 fold
CC1=C(C(=O)OCc2ccccc2)C(c2ccc(-c3ccccc3)cc2)N(CCCCCC(=O)O)C(=S)N1 (centres unmarked) [AMT551-071],Fold change in ATPase activity of T antigen,[1],−1.6 fold
CC1=C(C(=O)OCc2ccccc2)C(c2ccc(-c3ccccc3)cc2)NC(=S)N1CCCCCC(=O)O (centres unmarked) [AMT551-090],Fold change in ATPase activity of T antigen,[1],−1.5 fold
same,"Effect on Hsp40-dependent activation of Hsp70, in words",[3],either lacked inhibitory activity or modesty stimulated
CC1=C(C(=O)OCc2ccccc2)C(c2ccc(-c3ccccc3C)cc2)NC(=O)N1CCCCCc1nnn[nH]1 (centres unmarked) [LR340-006],Fold change in ATPase activity of T antigen,[1],−2.1 fold
CC1=C(C(=O)OCc2ccccc2)C(c2ccc(-c3ccccc3)cc2)NC(=O)N1CCCCCC(=O)O (centres unmarked) [MAL2-11B],Fold change in ATPase activity of T antigen,[1],−1.5 fold
same,"Effect on Hsp40-dependent activation of Hsp70, in words",[3],either lacked inhibitory activity or modesty stimulated
CC1=C(C(=O)OCc2ccccc2)C(c2ccc(-c3ccccc3C)cc2)NC(=O)N1Cc1ccc(-c2nnn[nH]2)cc1 (centres unmarked) [SMAL],IC50,[4]; read-out: IC50 T antigen ATPase activity,5 µM
same,EC50,[4]; read-out: reported EC50 (T antigen ATPase),~5 µM
same,"Effect on T antigen ATPase activity, in words",[1]; final concentration 10 μM,significantly reduced the ATPase activity of T antigen
same,"Effect on endogenous Hsp70 ATPase activity, in words",[5],modestly inhibited
CC1=C(C(=O)OCc2ccccc2)C(c2ccc(-c3ccccc3C)cc2)NC(=S)N1CCCCCc1nnn[nH]1 (centres unmarked) [AMT580-033],Fold change in ATPase activity of T antigen,[1],−4.7 fold
CC1=C(C(=O)OCc2ccccc2)C(c2ccc(-c3ccccc3)cc2)NC(=O)N1CCCCCc1nnn[nH]1 (centres unmarked) [BQU015242],Fold change in ATPase activity of T antigen,[1],−1.4 fold
same,"Effect on endogenous Hsp70 ATPase activity, in words",[5],modestly inhibited
Nc1ccn(C[C@@H](CO)OCP(=O)(O)O)c(=O)n1.O.O [Cidofovir],Toxicity relative to the dihydropyrimidines,[6],significantly less toxic than the dihydropyrimidines
CC1=C(C(=O)OCc2ccccc2)C(c2ccc(-c3ccccc3)cc2)N(Cc2ccc(-c3nnn[nH]3)cc2)C(=O)N1 (centres unmarked) [AMT628-003],Fold change in ATPase activity of T antigen,[1],−2.3 fold
CC1=C(C(=O)OCc2ccccc2)C(c2ccc(-c3ccccc3)cc2)NC(=S)N1Cc1ccc(-c2nnn[nH]2)cc1 (centres unmarked) [AMT551-078],Fold change in ATPase activity of T antigen,[1],−5.5 fold
CC1=C(C(=O)OCc2ccccc2)C(c2ccc(-c3ccccc3)cc2)NC(=O)N1Cc1ccc(-c2nnn[nH]2)cc1 (centres unmarked) [ML282-56],Fold change in ATPase activity of T antigen,[1],−2.0 fold
CCCCCCN(C(=O)CCCCCN1C(=O)NC(c2ccc(-c3ccccc3)cc2)C(C(=O)OCc2ccccc2)=C1C)C(C(=O)NCCCC)c1ccc(OCC(=O)OC)c(C(=O)OC)c1 (centres unmarked) [MAL3-101],GI50,[7],6 to 13 µM
